# Patent US7417061B2, “Oxadiazole compounds and compositions for delivering active agents” (MHR Institutional Partners IIA LP, priority 1999, dated 2008)
# Test: Oral delivery of rhGH with delivery agent compound in rats; serum rhGH by immunoassay
# Type: in vivo, rat
# Settings: male Sprague-Dawley rats, compound 200 mg/kg, rhGH 3 mg/kg, 1 ml/kg, pooled samples (except compound 1)
# Protocol: Oral gavage (PO) and/or intracolonic (IC) dosing solutions of delivery agent compound and rhGH in phosphate buffer were prepared. A solution of the compound was made either with the sodium salt of the compound or by converting the free acid to its sodium salt. Typically, a solution of the compound was prepared in phosphate buffer and stirred, adding one equivalent of sodium hydroxide (1.0 N) when making the sodium salt. The final dosing solutions were prepared by mixing the compound solution with an rhGH stock solution (15 mg rhGH/ml) and diluting to the desired volume (usually 3.0 ml). The compounds and rhGH dose amounts are listed below in Table 3.
# The typical dosing and sampling protocols were as follows. Male Sprague-Dawley rats weighing between 200-250 g were fasted for 24 hours and administered ketamine (44 mg/kg) and chlorpromazine (1.5 mg/kg) 15 minutes prior to dosing. A dosing group of five rats was administered one of the dosing solutions. For oral gavage (PO), an 11 cm Rusch 8 French catheter was adapted to a 1 ml syringe with a pipette tip. The syringe was filled with dosing solution by drawing the solution through the catheter, which was then wiped dry. The catheter was placed down the esophagus leaving 1 cm of tubing past the rat's incisors. Solution was administered by pressing the syringe plunger. For intracolonic (IC) dosing, a 7.5 cm Rusch catheter tube (French 8 or 6) was adapted to a syringe with an Eppendorf pipette tip. The syringe was filled with the dosing solution by drawing the solution through the catheter tube. The catheter tube was wiped dry. K-Y jelly was applied to the tip, avoiding contact with the eye of the tube, and the tube was inserted into the colon through the anus until the tube was no longer visible. The solution was injected by pressing the syringe plunger, and the tube was removed.
# Blood samples were collected serially from the tail artery, typically at 0, 15, 30, 45, 60 and 90 minutes after oral administration and 0, 10, 20, 30, 60 and 90 minutes after IC administration. The five samples from each time period were pooled (except for where compound 1 was dosed). Serum rHGH concentrations were quantified by an rHGH immunoassay test kit (Kit # K1F4015 from Genzyme Corporation Inc., Cambridge, Mass.). Previous studies indicated baseline values of about zero.
# The maximum concentration for each group and the area under the curve (AUC), when available, are reported below in Table 3.
row,Compound,Mean Peak Serum [rhGH] [ng/mL]
1,O=C(O)CCCCCCc1nnc(-c2cc(Cl)ccc2O)o1 [Compound 5],14.64
2,O=C(O)CCCCCCc1nnc(-c2cc(Cl)cc(Cl)c2O)o1 [Compound 6],0
3,COc1ccc(-c2nnc(CCCCC(=O)O)o2)c(O)c1 [Compound 9],14.25
4,Cc1nnc(CCCCCCC(=O)O)o1 [Compound 12],0
